Measured values taken from US20240002391A1, “4-ALKOXYPYRROLO[2,1-F][1,2,4]TRIAZINES AND PREPARATION AND USES THEREOF” (BioSplice Therapeutics, Inc., priority 2022, published 2024).

Biological target: recombinant DYRK1A kinase (Homo sapiens (Human), UniProt Q13627)
Assay: DYRK1A kinase assay (Ser/Thr 18 peptide Z-lyte FRET)
Assay type: biochemical
Conditions: DYRK1A kinase activity, Z-lyte Ser/Thr 18 peptide, 15 μM ATP; method text calls the value IC50; read-out: EC50 (the source's name)
In short: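 IC50 from non-linear fits of percent phosphorylation, derived from coumarin/fluorescein emission ratio after 1 h protease development. Kinase reaction: 1 h room temperature, 15 μM ATP, 4 μM Ser/Thr peptide 18, 0.25 μg/mL recombinant DYRK1A, duplicate 11-point 1:3 dilutions from 10 μM.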

| SMILES | IC50 [nM] |
| --- | --- |
| COc1nc(N[C@H]2CC[C@@](C)(O)CC2)nn2ccc(-c3ccc4nnn(CC(F)(F)F)c4c3)c12 [Compound 910, (1s,4s)-4-((4-Methoxy-5-(1-(2,2,2-trifluoroethyl)-1H-benzo[d][1,2,3]triazol-6-yl)pyrrolo[2,1-f][1,2,4]triazin-2-yl)amino)-1-methylcyclohexan-1-ol] | 7.7 |
| COc1nc(N[C@H]2CC[C@](C)(O)CC2)nn2ccc(-c3ccc4nnn(CC(F)(F)F)c4c3)c12 [Compound 911, (1r,4r)-4-((4-Methoxy-5-(1-(2,2,2-trifluoroethyl)-1H-benzo[d][1,2,3]triazol-6-yl)pyrrolo[2,1-f][1,2,4]triazin-2-yl)amino)-1-methylcyclohexan-1-ol] | 2.1 |
| COc1nc(NCC(C)(C)F)nn2ccc(-c3cnc4nccn4c3)c12 [Compound 924, N-(2-Fluoro-2-methylpropyl)-5-(imidazo[1,2-a]pyrimidin-6-yl)-4-methoxypyrrolo[2,1-f][1,2,4]triazin-2-amine] | 2.1 |
| COCC[C@@H](C)Nc1nc(OC)c2c(-c3cnc4nccn4c3)ccn2n1 [Compound 926, (R)-5-(Imidazo[1,2-a]pyrimidin-6-yl)-4-methoxy-N-(4-methoxybutan-2-yl)pyrrolo[2,1-f][1,2,4]triazin-2-amine] | 5.6 |
| COc1nc(N[C@@H](C)C2COC2)nn2ccc(-c3cnc4nccn4c3)c12 [Compound 928, (S)-5-(Imidazo[1,2-a]pyrimidin-6-yl)-4-methoxy-N-(1-(oxetan-3-yl)ethyl)pyrrolo[2,1-f][1,2,4]triazin-2-amine] | 2 |
| COc1nc(N[C@@H]2CC[C@@H]2OC)nn2ccc(-c3cnc4nccn4c3)c12 [Compound 929, 5-(Imidazo[1,2-a]pyrimidin-6-yl)-4-methoxy-N-((1R,2S)-2-methoxycyclobutyl)pyrrolo[2,1-f][1,2,4]triazin-2-amine] | 19.8 |
| COc1nc(N[C@@H]2CC[C@H]2OC)nn2ccc(-c3cnc4nccn4c3)c12 [Compound 930, 5-(Imidazo[1,2-a]pyrimidin-6-yl)-4-methoxy-N-((1R,2R)-2-methoxycyclobutyl)pyrrolo[2,1-f][1,2,4]triazin-2-amine] | 6.9 |
| COc1nc(N[C@@H]2CCC[C@@H]2O)nn2ccc(-c3cnc4nccn4c3)c12 [Compound 942, (1S,2R)-2-((5-(Imidazo[1,2-a]pyrimidin-6-yl)-4-methoxypyrrolo[2,1-f][1,2,4]triazin-2-yl)amino)cyclopentan-1-ol] | 18.9 |
| COc1nc(NC2CCC(C)(C)CC2)nn2ccc(-c3cnc4nccn4c3)c12 [Compound 947, N-(4,4-Dimethylcyclohexyl)-5-(imidazo[1,2-a]pyrimidin-6-yl)-4-methoxypyrrolo[2,1-f][1,2,4]triazin-2-amine] | 2.2 |
| COc1nc(N[C@@H]2CCNCC2(F)F)nn2ccc(-c3cnc4nccn4c3)c12 [Compound 964, (R)—N-(3,3-Difluoropiperidin-4-yl)-5-(imidazo[1,2-a]pyrimidin-6-yl)-4-methoxypyrrolo[2,1-f][1,2,4]triazin-2-amine] | 4.3 |
| COc1nc(N[C@@H]2CCN(C3COC3)CC2(F)F)nn2ccc(-c3cnc4nccn4c3)c12 [Compound 968, (R)—N-(3,3-Difluoro-1-(oxetan-3-yl)piperidin-4-yl)-5-(imidazo[1,2-a]pyrimidin-6-yl)-4-methoxypyrrolo[2,1-f][1,2,4]triazin-2-amine] | 2.8 |
| COc1nc(N[C@@H]2CCCOC2)nn2ccc(-c3cnc4nccn4c3)c12 [Compound 975, (R)-5-(Imidazo[1,2-a]pyrimidin-6-yl)-4-methoxy-N-(tetrahydro-2H-pyran-3-yl)pyrrolo[2,1-f][1,2,4]triazin-2-amine] | 7.6 |
| COc1nc(NC2CC3CC3C2)nn2ccc(-c3cnc4nccn4c3)c12 (stereo not shown) [Compound 976, N-(Bicyclo[3.1.0]hexan-3-yl)-5-(imidazo[1,2-a]pyrimidin-6-yl)-4-methoxypyrrolo[2,1-f][1,2,4]triazin-2-amine] | 2.5 |
| COc1nc(NC2CCC3(CC2)CC3)nn2ccc(-c3cnc4nccn4c3)c12 [Compound 977, 5-(Imidazo[1,2-a]pyrimidin-6-yl)-4-methoxy-N-(spiro[2.5]octan-6-yl)pyrrolo[2,1-f][1,2,4]triazin-2-amine] | 1.8 |
| COc1nc(NC23CCC(O)(CC2)C3)nn2ccc(-c3cnc4nccn4c3)c12 [Compound 978, 4-((5-(Imidazo[1,2-a]pyrimidin-6-yl)-4-methoxypyrrolo[2,1-f][1,2,4]triazin-2-yl)amino)bicyclo[2.2.1]heptan-1-ol] | 2.4 |
| COc1nc(N[C@H]2CC[C@](C)(O)CC2)nn2cc(F)c(-c3cnc4nccn4c3)c12 [Compound 996, (1r,4r)-4-((6-Fluoro-5-(imidazo[1,2-a]pyrimidin-6-yl)-4-methoxypyrrolo[2,1-f][1,2,4]triazin-2-yl)amino)-1-methylcyclohexan-1-ol] | 2.9 |
| COc1nc(N[C@H]2C[C@](C)(C(=O)NC3(C)CCC3)C2)nn2ccc(-c3ccc4ncccc4c3)c12 [Compound 1040, trans-3-((4-Methoxy-5-(quinolin-6-yl)pyrrolo[2,1-f][1,2,4]triazin-2-yl)amino)-1-methyl-N-(1-methylcyclobutyl)cyclobutane-1-carboxamide] | 2.7 |

Molecules with a lower IC50, results first:

| IC50 [nM] | SMILES |
| --- | --- |
| 0.8 | COc1nc(N[C@@H]2CN(C(C)=O)C[C@@H]2F)nn2ccc(-c3ccc4nnn(CC(F)(F)F)c4c3)c12 [Compound 912, 1-((3S,4R)-3-Fluoro-4-((4-methoxy-5-(1-(2,2,2-trifluoroethyl)-1H-benzo[d][1,2,3]triazol-6-yl)pyrrolo[2,1-f][1,2,4]triazin-2-yl)amino)pyrrolidin-1-yl)ethan-1-one] |
| 1.4 | COc1nc(N[C@H]2CCN(C(C)=O)C[C@H]2F)nn2ccc(-c3ccc4nnn(CC(F)(F)F)c4c3)c12 [Compound 916, 1-((3R,4S)-3-Fluoro-4-((4-methoxy-5-(1-(2,2,2-trifluoroethyl)-1H-benzo[d][1,2,3]triazol-6-yl)pyrrolo [2,1-f][1,2,4]triazin-2-yl)amino)piperidin-1-yl)ethan-1-one] |
| 1.4 | COc1nc(N[C@@H]2CCN(C(C)=O)CC2(F)F)nn2ccc(-c3ccc4nnn(CC(F)(F)F)c4c3)c12 [Compound 921, (R)-1-(3,3-Difluoro-4-((4-methoxy-5-(1-(2,2,2-trifluoroethyl)-1H-benzo[d]1[1,2,3]triazol-6-yl)pyrrolo[2,1-f][1,2,4]triazin-2-yl)amino)piperidin-1-yl)ethan-1-one] |
| 0.9 | COc1nc(N[C@@H]2CCN(C3COC3)CC2(F)F)nn2ccc(-c3ccc4nnn(CC(F)(F)F)c4c3)c12 [Compound 922, (R)—N-(3,3-Difluoro-1-(oxetan-3-yl)piperidin-4-yl)-4-methoxy-5-(1-(2,2,2-trifluoroethyl)-1H-benzo[d][1,2,3]triazol-6-yl)pyrrolo[2,1-f][1,2,4]triazin-2-amine] |
| 1.2 | COc1nc(N[C@H](C)C2COC2)nn2ccc(-c3cnc4nccn4c3)c12 [Compound 927, (R)-5-(Imidazo[1,2-a]pyrimidin-6-yl)-4-methoxy-N-(1-(oxetan-3-yl)ethyl)pyrrolo[2,1-f][1,2,4]triazin-2-amine] |
| 1.5 | CCO[C@H]1C[C@@H](Nc2nc(OC)c3c(-c4cnc5nccn5c4)ccn3n2)C1 [Compound 931, N-(cis-3-Ethoxycyclobutyl)-5-(imidazo[1,2-a]pyrimidin-6-yl)-4-methoxypyrrolo[2,1-f][1,2,4]triazin-2-amine] |
| 1.6 | COc1nc(N[C@H]2C[C@@](C)(NC(C)=O)C2)nn2ccc(-c3cnc4nccn4c3)c12 [Compound 934, N-((1s,3s)-3-((5-(Imidazo[1,2-a]pyrimidin-6-yl)-4-methoxypyrrolo[2,1-f][1,2,4]triazin-2-yl)amino)-1-methylcyclobutyl)acetamide] |
| 1.2 | COc1nc(N[C@H]2C[C@](C)(NC(C)=O)C2)nn2ccc(-c3cnc4nccn4c3)c12 [Compound 935, N-((1r,3r)-3-((5-(Imidazo[1,2-a]pyrimidin-6-yl)-4-methoxypyrrolo[2,1-f][1,2,4]triazin-2-yl)amino)-1-methylcyclobutyl)acetamide] |
| 1.5 | COc1nc(NC2CCCCC2)nn2ccc(-c3cnc4nccn4c3)c12 [Compound 944, N-Cyclohexyl-5-(imidazo[1,2-a]pyrimidin-6-yl)-4-methoxypyrrolo[2,1-f][1,2,4]triazin-2-amine] |
| 0.4 | COc1nc(NC2CCC(C)(C#N)CC2)nn2ccc(-c3cnc4nccn4c3)c12 (stereo not shown) [Compound 948, 4-((5-(Imidazo[1,2-a]pyrimidin-6-yl)-4-methoxypyrrolo[2,1-f][1,2,4]triazin-2-yl)amino)-1-methylcyclohexane-1-carbonitrile] |
| 0.9 | COc1nc(N[C@H]2CC[C@](C)(OC)CC2)nn2ccc(-c3cnc4nccn4c3)c12 [Compound 954, 5-(Imidazo[1,2-a]pyrimidin-6-yl)-4-methoxy-N-((1r,4r)-4-methoxy-4-methylcyclohexyl)pyrrolo[2,1-f][1,2,4]triazin-2-amine] |
| 0.5 | CNC(=O)[C@]1(C)C[C@@H](Nc2nc(OC)c3c(-c4ccc5ncccc5c4)ccn3n2)C1 [Compound 1038, trans-3-((4-Methoxy-5-(quinolin-6-yl)pyrrolo[2,1-f][1,2,4]triazin-2-yl)amino)-N,1-dimethylcyclobutane-1-carboxamide] |
| 1.7 | COc1nc(N[C@H]2C[C@](C)(C(=O)NC3CC3)C2)nn2ccc(-c3ccc4ncccc4c3)c12 [Compound 1039, trans-N-Cyclopropyl-3-((4-methoxy-5-(quinolin-6-yl)pyrrolo[2,1-f][1,2,4]triazin-2-yl)amino)-1-methylcyclobutane-1-carboxamide] |
| 0.9 | COc1nc(N[C@H]2C[C@](C)(C(=O)NC3CC(F)(F)C3)C2)nn2ccc(-c3ccc4ncccc4c3)c12 [Compound 1041, trans-N-(3,3-Difluorocyclobutyl)-3-((4-methoxy-5-(quinolin-6-yl)pyrrolo[2,1-f][1,2,4]triazin-2-yl)amino)-1-methylcyclobutane-1-carboxamide] |
